Assays:
[1] = Metabolic stability, rat liver S9; format: in vitro ADME; details: pooled liver S9 fraction, Table S4, n=1, read-out: t1/2 rat liver S9
Protocol: (§1) For the evaluation of combined phase I and phase II metabolic stability, the compound (1 μM) was incubated with 1 mg/mL pooled liver S9 fraction from the respective species (Xenotech), […]
(§2) 2 mM NADPH, 1 mM UDPGA, 10 mM MgCl2, 5 mM GSH and 0.1 mM PAPS at 37 °C for […]
(§3) 0, 5, 15, 30 or 60 min. The metabolic stability of Testosterone (1 μM) and verapamil (1 μM) […]
(§4) were determined in parallel to confirm the enzymatic activity of the S9 fraction. The […]
(§5) incubation was stopped by precipitation of S9 enzymes with 2 volumes of cold acetonitrile […]
(§6) containing internal standard (750 nM Diphenhydramine). Samples were stored on ice for 10 […]
(§7) min and precipitated protein was removed by centrifugation (10 min, 4 °C, 17,000 g).
(§8) Concentration of the remaining test compound at the different time points was analyzed by […]
(§9) LC-MS/MS (TSQ Quantum Access MAX, Thermo Fisher, Dreieich, Germany) and used to […]
(§10) determine half-life (t1/2). Stability of compound 4 in further S9 fractions are summarized in […]
(§11) Table S4. Metabolic stability studies in various S9 fractions. […]

[2] = Metabolic stability, rabbit liver S9; format: in vitro ADME; details: pooled liver S9 fraction, Table S4, read-out: t1/2 rabbit liver S9
Protocol: (§12) subtraction and plotted using GraphPad Prism 8.4.2 (GraphPad Software, San Diego, CA, […]
(§13) USA). Solubility (S) was determined based on the First X value of AUC function using a […]
as §1, §2, §3, §4, §5, §6, §7, §8, §9, §10, §11
(§14) guinea pig liver S9 92.5 ± 5.4
(§15) 5.6. Permeability studies
(§16) Permeability of compound 4 and 17 was assessed in vitro with Calu-3 HTB-55 cell line (ATCC). […]

[3] = Metabolic stability, guinea pig liver S9; format: in vitro ADME; details: pooled liver S9 fraction, Table S4, read-out: t1/2 guinea pig liver S9
Protocol: as §12, §13, §1, §2, §3, §4, §5, §6, §7, §8, §9, §10, §11, §14, §15, §16

[4] = Metabolic stability, dog liver S9; format: in vitro ADME; details: pooled liver S9 fraction, Table S4, read-out: t1/2 dog liver S9
Protocol: as §1, §2, §3, §4, §5, §6, §7, §8, §9, §10, §11

P. aeruginosa NH57388A = assay: Murine mucoid lung infection model, target engagement; format: in vivo, Pseudomonas aeruginosa
Protocol: We, therefore, decided to make use of a murine sub‐chronic infection model with a mucoid infection phenotype specifically enabling to assess the on‐target activity of QSIs. […] Animals were immediately treated with QSI 4 co‐administered using methyl cellulose (dose = 5 mg kg^−1) or vehicle (control), followed by further treatments at 24 and 48 h post‐infection. The lungs were harvested at 72 h time point, homogenized and extracted using ethyl acetate. As a readout for target engagement, we quantified the signal molecule levels of HHQ, PQS, and HQNO as proximal biomarkers for the activity of the bacterial target. […] In addition, we measured bacterial burden in form of CFU count as a treatment endpoint (Section S6.3, Supporting Information). […] Moreover, CFU was reduced by four‐fold upon treatment with QSI 4 (see Table S11 in the Supporting Information). […] However, considering the impact of the host immune system on bacterial clearance and the action of some PqsR‐controlled virulence factors toward immune‐system evasion (biofilm formation, pyocyanin production, elastase LasB expression), an indirect effect on the bacterial load in the lungs is plausible. However, it has to be stated that this effect is only minor compared to typical 2‐ to 4‐log unit reductions achieved by early antibiotic treatment.^[ ^31 ^]
6.3. Design of in vivo Target Engagement Study
General. Mouse experiments were approved by the Landesamt für Soziales, Gesundheit und Verbraucherschutz of the State of Saarland in accordance with the national guidelines for animal treatment on August, 17th, 2017 (22/2017). The IVC unit was located within a biosafety level 2 laboratory and mice were allowed to acclimatize to their environment for at least seven days prior to the experiment. Throughout the experiment, the mice had access to water and food ad libitum.
Background studies were performed in order to generate typical mean and standard deviation values for biomarkers of the control group. Sample size was calculated using BiAS.
(Software Version 11.08) from these values with alpha = 0.05 and P = 0.8 for biomarker reduction of 80% resulting in a sample size of ten mice or higher for a two-sample t-test.
Primary study. Ten-week old female C57BL/6N mice were housed in an individually ventilated-cage unit with ten mice per cage and twenty mice in total. One group (from one cage) was treated with compound 4, while the other group received a sham treatment with vehicle. Mice were not randomized, and no blinding was applied.
For the infection, each mouse was anesthetized intraperitoneally with 2.025 mg of ketaminhydrochloride (Ursotamin, Serumwerk Bernburg, Germany) and 0.12 mg of xylazinhydrochloride (Xylazin, WDF, Serumwerk Bernburg). Lidocainhydrochloride (Xylocain; Aspen Pharma, Ireland) was used for local anesthesia of the epiglottis before endotracheal intubation with a flexible cannula and intra-tracheal application of the inoculum […]
Application of inoculum (start of infection, 0 h) using 20 µL viable P. aeruginosa NH57388A culture supplemented with sodium alginate (22 mg/mL, Sigma). These were mixed with 20 µL of either compound 4 (5 mg/kg BW suspended in 0.1% methylcellulose) or vehicle (0.1% methylcellulose) to conduct the first treatment simultaneously to infection via intra-tracheal application assisted by endotracheal intubation using a flexible cannula. Bacterial load was determined to be 5∙10^7 CFU per mouse by plating serial dilutions on LB-agar plates.
Subsequent treatments were performed at 24 and 48 h post infection with 20 µL of compound 4 (5 mg/kg BW suspended in 0.5% methylcellulose, 0.2 vol-% Tween-80) or vehicle (0.5% methylcellulose, 0.2 vol-% Tween 80) were administered intra-tracheally following the same procedure as the infection. 72 h post infection mice were euthanized, lungs were removed aseptically and homogenized in 500 µL sterile phosphate buffered saline over the course of […]
72 h. Again, bacterial load was determined by plating serial dilutions on LB-agar plates. The […]

[5] = treated group, n = 7, 72 h, below LLOQ

FC(F)(F)c1cc(NCc2cn(-c3ccc(Oc4ccccc4)cc3)nn2)ccn1 [Compound 4]
half-life at 1 μM [1]: 24.2 min | half-life at 1 μM [2]: 20 ± 10 min | half-life at 1 μM [3]: 92.5 ± 5.4 min | half-life at 1 μM [4]: 72.2 ± 7.6 min | reduction of CFU / bacterial load upon treatment (P. aeruginosa NH57388A; mice, 5 mg kg^−1, 72 h): four‐fold | auto‐inducer levels (HHQ, PQS, HQNO) in infected lungs (P. aeruginosa NH57388A; mice, 5 mg kg^−1, 72 h, p < 0.05): reduced significantly | CFU/mouse Mean (P. aeruginosa NH57388A; treated group, n = 7, 72 h): 173600 CFU/mouse | CFU/mouse Median (P. aeruginosa NH57388A; treated group, n = 7, 72 h): 147500 CFU/mouse | HHQ Mean (P. aeruginosa NH57388A; treated group, n = 7, 72 h): 1.7 pmol | HHQ Median (P. aeruginosa NH57388A; treated group, n = 7, 72 h): 0.9 pmol | HQNO Mean (P. aeruginosa NH57388A; treated group, n = 7, 72 h): 5.2 pmol | HQNO Median (P. aeruginosa NH57388A; treated group, n = 7, 72 h): 2.3 pmol | PQS Mean (P. aeruginosa NH57388A; [5]): 0.3 pmol | PQS Median (P. aeruginosa NH57388A; [5]): 0.2 pmol | Reduction through treatment, CFU/mouse (P. aeruginosa NH57388A; treated vs untreated means): 77.3% | Reduction through treatment, HHQ (P. aeruginosa NH57388A; treated vs untreated means): 99.3% | Reduction through treatment, HQNO (P. aeruginosa NH57388A; treated vs untreated means): 98.3% | Reduction through treatment, PQS (P. aeruginosa NH57388A; treated vs untreated means): 99.1%

— publication PMC8224453, “A New PqsR Inverse Agonist Potentiates Tobramycin Efficacy to Eradicate Pseudomonas aeruginosa Biofilms” (Advanced Science, 2021)
